The text below walks through data of patent US8685936B2, “Sphingosine kinase inhibitor prodrugs” (Apogee Biotechnology Corporation, priority 2009, dated 2014).

Data set [1] in a line: Conversion of Compound 2 to Compound 1 in living mice; plasma levels of Compound 1 by HPLC. The data set is classed as in vivo. The method, then: FIG. 4. Conversion of Compound 2 into Compound 1 in vivo. Balb/C female mice, 6-8 weeks old, were dosed with either Compound 1 (●) or Compound 2 (♦) at 50 mg/kg by intravenous injection. Mice were euthanized at the indicate times after injection, and blood was harvested by cardiac puncture and plasma was prepared. The plasma was then extracted and analyzed for Compound 1 levels by HPLC.
To extend the in vitro studies described above, the ability of Compound 2 to be converted to Compound 1 in an in vivo test system was determined. In these experiments, Compound 1 or Compound 2 was dissolved in PEG400 and administered to female Balb/C mice at a dose of 50 mg/kg by intravenous injection. Mice were sacrificed and blood was removed via cardiac puncture at 2 minutes, 15 minutes, 30 minutes or 60 minutes. The concentration of Compound 1 in the blood of the animals at each of the time points was determined using HPLC with UV detection as described in the previous Example. […] In the case of administration of Compound 2, plasma concentrations of Compound 1 rose during the first 30 minutes and then were decreased with a half-time of clearance of approximately 20 minutes.

In data set [2] the test system is DSS-colitis model. The data set is described as follows: Acute DSS-colitis model of inflammatory bowel disease. The format is in vivo, C57BL/6 mice. The procedure:
FIG. 7. Effects of Compound 1 and Compound 2 on the Disease Activity Index (DAI) in the acute DSS-colitis model. […] After 6 days, the DAI was calculated for each group. Values represent the mean±std. dev. for 5-6 mice per group. […] FIG. 8. Effects of Compound 1 and Compound 2 on colon length in the acute DSS-colitis model. […] After 6 days, the animals were sacrificed and the length of the colon was measured. Values represent the mean±std. dev. for 6-7 mice per group. In this model, colon length decreases as the disease progresses. […] FIG. 9. Effects of Compound 1 and Compound 2 on neutrophil infiltration into the colon in the acute DSS-colitis model. […] After 6 days, the animals were sacrificed and the colons were harvested. Myeloperoxidase activity (MPO) was measured and normalized by the protein concentration of the samples. Values represent the mean±std. dev. for 6-7 mice per group. In this model, MPO activity in the colon increases as a result of neutrophil infiltration into the colon as the disease progresses. […] FIG. 10. Effects of ester prodrugs on colon length in the acute DSS-colitis model. C57BL/6 mice were treated for 6 days as follows: 2% DSS in the drinking water and daily oral administration of Vehicle (described in FIG. 7); or 2% DSS in the drinking water and oral administration of 50 mg/kg the indicated ester prodrugs in Vehicle. After 6 days, the animals were sacrificed and the length of the colon was measured. Values represent the mean±std. dev. for 4-5 mice per group. In this model, colon length decreases as the disease progresses. […] FIG. 11. Effects of ester prodrugs on neutrophil infiltration into the colon in the acute DSS-colitis model. C57BL/6 mice were treated for 6 days as follows: 2% DSS in the drinking water and daily oral administration of Vehicle (described in FIG. 7); or 2% DSS in the drinking water and oral administration of 50 mg/kg the indicated ester prodrugs in Vehicle. After 6 days, the animals were sacrificed and the length of the colon was measured. Values represent the mean±std. dev. for 4-5 mice per group. In this model, MPO activity in the colon increases as a result of neutrophil infiltration into the colon as the disease progresses. […] In these experiments, male C57BL/6 mice were provided with standard rodent diet and water ad libitum. After their acclimation, the animals were randomly divided into groups of 5 or 6 for DSS (40,000 MW from ICN Biomedicals, Inc., Aurora, Ohio)- and drug-treatment. The Compounds were dissolved in a Vehicle consisting of 46.7% PEG 400, 46.7% of a solution of 0.375% Tween 80 in saline and 6.6% ethanol, and given once daily (starting on Day 0) by oral gavage in a volume of 0.1 mL per dose. The mice were given normal drinking water or 2% DSS (starting on Day 0) and treated orally with Compound 1 or Compound 2 at a dose of 50 mg/kg daily. The body weight of each animal was measured each day, and the Disease Activity Index (DAI) was scored for each animal on Day 6. On Day 6, the animals were sacrificed by cervical dislocation and the entire colon was removed and measured to the nearest 0.1 cm. The distal 3 cm of the colons were used for biochemical analyses of inflammation markers.

The subject of data set [3] is TNBS-induced Crohn's Disease model. The data set is described as follows: TNBS-induced Crohn's Disease model. The format is in vivo. The procedure: FIG. 12. Effects of Compound 1 and Compound 2 on colon histology in the TNBS-induced Crohn's Disease model. On Day 0, female Sprague-Dawley rats were administered TNBS using a stainless steel catheter that was inserted into the colon (8 cm proximal to the anus; 1.0 mL of solution containing 30 mg TNBS and 20% ethanol in PBS). On Days 0-5 animals received daily oral gavage of Vehicle (described in FIG. 7) or 50 mg/kg of Compound 1 or Compound 2 in Vehicle. On Day 6, the colons were removed, weighed and scored for macroscopic damage. The distal 6 cm were transected for subsequent histology and biochemical analyses. In this model, the macroscopic score is an index of histologic damage to the colon which increases as the disease progresses.
FIG. 13. Effects of Compound 1 and Compound 2 on colon weight in the TNBS-induced Crohn's Disease model. Colon weights were measured for the rats described in FIG. 12. Values represent the mean±std. dev. for 5-6 rats per group. In this model, colon weight increases as the disease progresses due to progressive inflammation-mediated edema.
FIG. 14. Effects of Compound 2 on neutrophil infiltration into the colon in the TNBS-induced Crohn's Disease model. Neutrophil infiltration was evaluated in the rats described in FIG. 12. Values represent the mean±std. dev. for 5-6 rats per group. In this model, MPO activity in the colon increases as a result of neutrophil infiltration into the colon as the disease progresses.
The trinitrobenzene sulfonic acid (TNBS) model in rats provides a rapid, reliable and reproducible IBD model that mimics the manifestations of Crohn's Disease. Application of the hapten TNBS to the colon in the presence of ethanol results in transmural infiltrative disease that is limited to the colon and appears to be an IL-12-driven, Th1-mediated immunologic response. […] TNBS induces measurable injury within 2 to 3 days, peak acute inflammation within a week, and gradual progression into chronic inflammation lasting about 2 months.
To test the efficacy of the Compounds, groups of female Sprague-Dawley rats were administered TNBS on Day 0 and treated with vehicle (as the negative control group), Compound 1 or Compound 2 on Days 0-5 by oral gavage at a dose of 50 mg/kg/day. […] Disease progression was evaluated by macroscopic score, colon weight and colon MPO activity at sacrifice. The macroscopic score measures macroscopic damage within the distal 6 cm of the colon using a system that considers the extent of and number of ulcerations.

Where [4] appears, read: TNBS Day 0, 50 mg/kg/day oral gavage Days 0-5, Day 6, female Sprague-Dawley rats.

Entries after “also recorded” stand apart in the source; their conditions may differ.

`CC(=O)Oc1ccc(CCNC(=O)C23CC4CC(C2)CC(c2ccc(Cl)cc2)(C4)C3)cc1OC(C)=O` [Compound 2, Acetic acid 2-acetoxy-5-(2-{[3-(4-chlorophenyl)-adamantane-1-carbonyl]-amino}ethyl)phenyl ester]: in data set [1] (50 mg/kg intravenous, female Balb/C mice), the “area-under-the-curve (AUC) for exposure to circulating Compound 1, compared with dosing Compound 1 itself” value is on record as “much greater”. In addition, the “half-time for clearance of Compound 1 from plasma” value in data set [1] (50 mg/kg of the named compound by intravenous injection in PEG400, female Balb/C mice, Compound 1 measured) is “approximately 20 minutes”. Further, the “Disease Activity Index (DAI)” value in data set [2] (2% DSS in drinking water, 50 mg/kg daily oral, Day 6, C57BL/6 mice, 50 mg/kg) is recorded as “reduced the intensity of the IBD manifestations; also recorded: superior to Compound 1 in reducing the DAI”. The “colon myeloperoxidase (MPO) activity (neutrophil infiltration)” value in data set [2] (2% DSS, 50 mg/kg daily oral, Day 6, C57BL/6 mice (Example 16, FIG. 9), 50 mg/kg) is reported as “markedly attenuated; also recorded: reduced to a greater extent”. The “colon length (contraction of the colon), ester prodrugs” value in data set [2] (2% DSS, 50 mg/kg oral, 6 days, C57BL/6 mice, 4-5 per group (Example 17, FIG. 10)) is given as “effective in preventing the contraction of the colons”. The colon length result in data set [2] (2% DSS, 50 mg/kg oral, Day 6, C57BL/6 mice (Example 16, FIG. 8), 50 mg/kg) was “colons of significantly longer length; also recorded: superior to the protective effect of Compound 1”. Moreover, the Compound-related toxicities result in data set [3] (50 mg/kg/day oral gavage Days 0-5, rats sacrificed on Day 6) is on record as “no Compound-related toxicities apparent”. In addition, in data set [3] (setting [4]), the “Macroscopic Score of colon damage” value is “reduced the Macroscopic Score”, the “colon MPO activity (granulocyte infiltration)” value is “reduced MPO activity in the colon” and the colon weight result is listed as “reduced the elevation of the colon weight”.
